Experimental data: patent US12295997B2, “Prostate neoantigens and their uses” (Janssen Biotech, Inc., priority 2020, dated 2025)

Columns and labels:
HLA-B*08:01 = HLA-B*08:01 (Homo sapiens, UniProt P01889, A93T/A95T/D138N/E176V/E187T/K202T/Q94N/R180D/S35A/V36M/Y33D/Y91F); experiment: In vitro binding of neoantigens to class I MHC (UV peptide exchange, HLA class I ELISA)
Method: (§1) The 9 mer peptides identified by bioinformatics analysis were analyzed for their binding propensities to 6 common HLA class I alleles (HLA-A*01:01, A*02:01, A*03:01, A*24:02, B*07:02, B*08:01). The principle of the method is briefly described below and consists of two parts, one involving exchange of peptide with a positive control induced by Ultraviolet (UV) radiation, and the second is an enzyme immunoassay to detect stable HLA-peptide and empty HLA complexes.
(§2) HLA-bound peptides are critical for the stability of the HLA complex. A conditional HLA class I complex was stabilized by an UV-labile peptide utilizing a different peptide (Pos) for each HLA (Pos: HLA-A*01:01: […](SEQ ID NO: 409), HLA-A*02:01: […] (SEQ ID NO: 410), HLA-A*03:01: […] (SEQ ID NO: 411), HLA-A*24:02: […] (SEQ ID NO: 412), HLA-B*07:02: […] (SEQ ID NO: 413), HLA-B*08:01: […] (SEQ ID NO: 414), which could be cleaved by UV irradiation when bound to the HLA molecule. Upon cleavage, the resulting peptide fragments dissociated from the HLA class I complex since their length was insufficient to bind stably to HLA. Under the conditions in which peptide cleavage was performed (neutral pH, on melting ice), the peptide-free HLA complex remained stable.
(§3) The exchange efficiency between the peptide of interest and Pos was analyzed using an HLA class I ELISA. The combined technologies allowed the identification of ligands for an HLA molecule of interest which are potentially immunogenic.
(§4) Exchange control peptide Pos was a high affinity binder to the relevant HLA class I allele while exchange control peptide Neg was a non-binder. The UV control represented UV-irradiation of conditional HLA class I complex in the absence of a rescue peptide.
(§5) The HLA class I ELISA is an enzyme immunoassay based on the detection of beta2-microglobulin (B2M) of (peptide-stabilized) HLA class I complexes. To this end streptavidin was bound onto polystyrene microtiter wells. After washing and blocking, HLA complex present in exchange reaction mixtures or ELISA controls was captured by the streptavidin on the microtiter plate via its biotinylated heavy chain. Non-bound material was removed by washing. Subsequently, horseradish peroxidase (HRP)-conjugated antibody to human B2M was added. The HRP-conjugated antibody binds only to an intact HLA complex present in the microtiter well because unsuccessful peptide exchange results in disintegration of the original UV-sensitive HLA complex upon UV illumination. In the latter case B2M was removed during the washing step. After removal of non-bound HRP conjugate by washing, a substrate solution was added to the wells. A coloured product formed in proportion to the amount of intact HLA complex present in the samples. After the reaction was terminated by the addition of a stop solution, absorbance was measured in a microtiter plate reader. The absorbance was normalized to the absorbance of an exchange control peptide (represents 100%). Suboptimal HLA binding of peptides with a moderate to low affinity for HLA class I molecules can also be detected by this ELISA technique (Rodenko, B et al. (2006) Nature Protocols 1: 1120-32).
(§6) Peptides that had 10% or greater exchange efficiency in one of the 6 HLA alleles were considered for further immunogenicity testing and analysis.
(§7) Binding of select neoepitopes to HLA-A*01:01, HLA-A*02:01, HLA-A*03:01, HLAA*24:02, HLAAB*07:02 and HLA-B*08:01 was evaluated using the assay described in Example 1. […] As a criterion for further evaluation, peptides with an exchange rate of at least 10% with the corresponding Pos peptide for at least one of the 6 HLA alleles that we considered for further evaluation. The exchange rates with the allele specific Pos peptides, of the 24 neoantigens so identified are summarized below in Table 17. Higher percentages correspond to stronger binding to the HLA allele. […]

[1] = tested on: CD8+ T cells in PBMCs from human patients with metastatic castrate-resistant prostate cancer; experiment: Patient PBMC restimulation assay (in vitro immunogenicity, TNFα/IFNγ intracellular flow cytometry); assay type: cell-based; conditions: 9-mer peptide; for Maximum fold change over negative control: TNFα+IFNγ+CD8+ T cells, highest across PBMC donors evaluated; for Maximum frequency of TNFα^+IFNγ^+CD8^+ T cells (Percent): greatest frequency among all tested PBMC donors; for Immunogenic: patient PBMC restimulation
Method: PBMCs from human patients with metastatic castrate-resistant prostate cancer were thawed using media (RPMI 1640 supplemented with Glutamax, 10% HI FBS, and 1× Sodium Pyruvate). Cells were counted and plated in a 96 well round bottom microplate at a concentration of 250,000 viable cells per well. Lyophilized peptides were solubilized in 100% DMSO and diluted in media to 10 μg/mL. Neoantigen peptides were added in equal volume to PBMCs for a final concentration of 5 μg/mL. CEF Peptide Pool “Plus” (Cellular Technologies, Ltd.) was utilized as a positive control and DMSO at the same final concentration as the experimental peptides was utilized as a negative control. Human IL-15 (Peprotech) was added to all wells at final concentration of 10 ng/mL.
Plates were incubated at 37° C. (5% CO2) for a total of 13 days. Media was refreshed every 2 days with IL-15 (10 ng/mL final concentration) and IL-2 (R&D systems, 10 IU/mL final concentration). On day 12, PBMCs were re-stimulated with identical experimental peptides or controls, at same concentration as peptide stimulation on Day 1. After 1-hour incubation, protein Inhibitor Cocktail (eBioscience) was added to every well and plate was incubated overnight.
On day 13, cells were stained for intracellular flow cytometry analysis. The cells were washed with PBS and stained with Live/Dead Fixable Aqua Dead Cell stain (Thermo-Fisher). Following the live/dead stain, cells were blocked using Biotin-Free Fc Receptor Blocker (Accurate Chemical & Scientific Corp). Extracellular cellular flow panel ([…] per well in 50 μL) consisted of CD3 PerCP-Cy5.5 (Biolegend), CD4 BV421 (Biolegend), and CD8 APC-Cy7 (Biolegend). After extracellular staining, cells were fixed using Foxp3/fTranscription Factor Staining Buffer Set (eBioscience) and stained for intracellular proteins (1:50 dilution) using TNFα FITC (R&D Systems) and IFNγ BV785 (Biolegend). Cells were washed and resuspended in stain buffer and analyzed using a BD Celesta flow cytometer.
Flow cytometry cell staining analysis was completed using FlowJo v10. Cells were gated on live, singlet, CD3+ cells. The CD8+ T cells were analyzed for TNFα/IFNγ expression and the frequency of double positive TNFα/IFNγ CD8+ T cells was recorded. Responses were assessed to be positive when the frequency of double positive TNFα/IFNγ CD8+ T cells due to stimulation with an experimental peptide was increased greater than or equal to 2-fold over the DMSO only negative control for that patient. Peptides were analyzed in 1 to 7 patient samples.
The 9 mer fragments shown in Table 13 were assessed for their ability to activate T cells using the Patient PBMC restimulation assay described in Example 1 using TNFα and IFNγ production by CD8^+ T cells as a readout. Self-antigens shown in Table 15 were also used in the assays. […] PBMCs from ten patients were evaluated.

[2] = tested on: CD8+ and CD4+ T cells (autologous CD3+ Pan-T cells isolated from human normal PBMCs); experiment: Exogenous autologous normal donor restimulation assay (15-mer overlapping peptide pools on CD1c+ dendritic cells, TNFα/IFNγ flow cytometry); assay type: cell-based; conditions: Table 25, 15-mer overlapping peptide pool; for Maximum Fold Change Over Background CD4+ cells: TNFα+IFNγ+ CD4+ T cells; for Maximum Fold Change Over Background CD4+ cells / Maximum Fold Change Over Background CD8+ cells: highest fold change over negative control across normal donors; for Maximum Fold Change Over Background CD8+ cells: TNFα+IFNγ+ CD8+ T cells; for Maximum Frequency of TNFα/IFNγ Double Positive CD4+ T cells / Maximum Frequency of TNFα/IFNγ Double Positive CD8+ T cells: highest frequency across normal donors
Summary of the method: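 Readout was intracellular TNFα/IFNγ flow cytometry on live CD3+ CD8+ and CD4+ cells after day-11 peptide restimulation. Stimulators were CD1c+ dendritic cells loaded with overlapping 15-mer peptide pools (2.5–10 μg/mL), irradiated, and cultured 12 days with autologous normal-donor Pan-T cells plus IL-15/IL-2. A response counted when ≥3-fold over DMSO control and at least 0.01%.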

HLA-A*03:01 = HLA-A*03:01 (Homo sapiens, UniProt P04439); experiment: In vitro binding of neoantigens to class I MHC (UV peptide exchange, HLA class I ELISA); conditions: 100% = same binding as positive control peptide
Method: as §1, §2, §3, §4, §5, §6
Binding of select neoepitopes to HLA-A*01:01, HLA-A*02:01, HLA-A*03:01, HLAA*24:02, HLAAB*07:02 and HLA-B*08:01 was evaluated using the assay described in Example 1. […] As a criterion for further evaluation, peptides with an exchange rate of at least 10% with the corresponding Pos peptide for at least one of the 6 HLA alleles that we considered for further evaluation. The exchange rates with the allele specific Pos peptides, of the 24 neoantigens so identified are summarized below in Table 17. Higher percentages correspond to stronger binding to the HLA allele.

HLA-A*01:01 = HLA-A*01:01 (Homo sapiens, UniProt P04439, A114D/A174V/A182V/D101N/D185E/E176A/E190D/L180R/Q94H/R68K/S129P/T187R/V100A/V91M/W191G); experiment: as above; conditions: 100% = same binding as positive control peptide
Method: as §1, §2, §3, §4, §5, §6, §7

HLA-B*07:02 = HLA-B*07:02 (Homo sapiens, UniProt P01889); experiment: as above; conditions: 100% = same binding as positive control peptide
Method: as §1, §2, §3, §4, §5, §6, §7

HLA-A*24:02 = HLA-A*24:02 (Homo sapiens, UniProt P04439, D101N/D140Y/D185E/E176V/E190D/F33S/G103R/G107R/I119L/I121M/I306V/K335N/L105A/L180Q/L300P/N151K/N90K/Q86E/Q94H/R106L/R138H/R89G/T104I/T345S/V100E/W191G/Y123F); experiment: as above; conditions: 100% = same binding as positive control peptide
Method: as §1, §2, §3, §4, §5, §6, §7

HLA-A*02:01 = HLA-A*02:01 (Homo sapiens, UniProt P04439, D140Y/D185E/D98H/E176V/E277Q/G131W/G231S/I119V/I121R/I166T/I218V/L300P/L318F/N151K/N90K/P208A/P217A/Q86G/Q94H/R138H/R169H/T345S); experiment: as above; conditions: 100% = same binding as positive control peptide
Method: as §1, §2, §3, §4, §5, §6, §7

| Substance | Maximum fold change over negative control [1] | Maximum frequency of TNFα^+IFNγ^+CD8^+ T cells (Percent) [1] [%] | Immunogenic [1] | Exchange rate with allele specific Pos peptide, HLA-A*03:01 (HLA-A*03:01) [%] | Exchange rate with allele specific Pos peptide, HLA-A*01:01 (HLA-A*01:01) [%] | Exchange rate with allele specific Pos peptide, HLA-B*07:02 (HLA-B*07:02) [%] | Exchange rate with allele specific Pos peptide, HLA-A*24:02 (HLA-A*24:02) [%] | further results |
| --- | --- | --- | --- | --- | --- | --- | --- | --- |
| 8 (QLIAMDSAI; listed as Homo sapiens) [Peptide 8] | – | – | – | – | – | – | – | Exch I (%) (HLA-B*08:01; Binding to HLA-B*08:01, UV peptide exchange, replicate I, Pos = 100): 8.0%; Exch II (%) (HLA-B*08:01; Binding to HLA-B*08:01, UV peptide exchange, replicate II, Pos = 100): 7.8%; Average % (HLA-B*08:01; Binding to HLA-B*08:01, average of Exch I and Exch II): 7.9% |
| GVPGDSTRRAVRRMNTF (listed as Homo sapiens) [Neoantigen P16] | 65.82 | 4.620 | Yes | – | – | – | – | Maximum Fold Change Over Background CD4+ cells [2]: 2.44; Maximum Fold Change Over Background CD8+ cells [2]: 2.44; Maximum Frequency of TNFα/IFNγ Double Positive CD4+ T cells [2]: 0.039; Maximum Frequency of TNFα/IFNγ Double Positive CD8+ T cells [2]: 0.039 |
| NSKMALNSLNSIDDAQLTRIAPPRSHCCFWEVNAP (listed as Homo sapiens) [Neoantigen P35] | 2.67 | 0.064 | Yes | – | – | – | – | Maximum Fold Change Over Background CD4+ cells [2]: 3.47; Maximum Fold Change Over Background CD8+ cells [2]: 14.44; Maximum Frequency of TNFα/IFNγ Double Positive CD4+ T cells [2]: 0.03; Maximum Frequency of TNFα/IFNγ Double Positive CD8+ T cells [2]: 0.26 |
| P17 (GVPGDSTRRAVRRMNTF; listed as Homo sapiens) [Peptide P17] | – | 0.130 | Yes | 3.8 | 4.9 | 38.7 | 0.1 | Exchange rate with allele specific Pos peptide, HLA-B*08:01 (HLA-B*08:01; 100% = same binding as positive control peptide): 9% |
| P37 (MAGGVLRRLLCREPDRDGDKGASREETVVPLHIGDPVVLPGIGQCYSALF; listed as Homo sapiens) [Peptide P37] | 3.13 | 1.160 | Yes | – | – | – | – | – |
| P48 (VQPIARELYQFTFDLLI; listed as Homo sapiens) [Peptide P48] | – | 0.220 | Yes | 4.4 | 4.3 | 12.8 | 0.1 | Exchange rate with allele specific Pos peptide, HLA-A*02:01 (HLA-A*02:01): 99.3% |
| P50 (QMAVIQYSCMGLMVFAM; listed as Homo sapiens) [Peptide P50] | 5.14 | 0.190 | Yes | – | – | – | – | – |
| P59 (LHPDSGNMVENGCYLRR; listed as Homo sapiens) [Peptide P59] | 10.75 | 3.010 | Yes | – | – | – | – | – |
| P76 (YCMAAPMGL) [Peptide P76] | – | 0.170 | Yes | 6 | 0.1 | 91.5 | −0.5 | Exchange rate with allele specific Pos peptide, HLA-A*02:01 (HLA-A*02:01): 85.9% |
| P77 (FFKRAAEGF) [Peptide P77] | 3.24 | 0.160 | Yes | – | – | – | – | – |
